Measurements as given in PMC9403976, “Elucidating the path to Plasmodium prolyl-tRNA synthetase inhibitors that overcome halofuginone resistance” (Nature Communications, 2022).
“And” between values parts separate entries of the source, which are not always exact repeats. Identical values can stand only once. Like-named read-outs stand apart in the source and are kept apart here.

How the values were obtained:
[1] = tested on: P. falciparum Dd2-2D4; experiment: P. falciparum asexual blood stage (ABS) growth assay, SYBR Green, 72 h, wild-type parasites; format: cell-based, Plasmodium falciparum; conditions: for ABS growth dose-response, normalized signal (Replicates 1-3) / parasite growth, dose-response point: Dd2-2D4; for parasite growth, dose-response point: single replicates
[2] = tested on: halofuginone-induced P. falciparum (elevated proline homeostasis); experiment: P. falciparum ABS growth assay, SYBR Green, 72 h, halofuginone-induced parasites; format: cell-based, Plasmodium falciparum; conditions: for parasite growth, dose-response point: Halofuginone-Induced (HFG-Induced), single replicates
How it was run: (§1)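 Dd2-derived P. falciparum lines (HFGR-I, halofuginone-induced) at 1% parasitemia and 1% hematocrit in RPMI + 0.5% Albumax were exposed to compounds in triplicate dose-response for 72 h. Growth was read as SYBR Green 1 fluorescence, with 10 μM dihydroartemisinin as kill control and compound-free wells as growth control.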

[3] = tested on: HFGR-I P. falciparum (elevated proline homeostasis and PfcProRS^L482H); experiment: P. falciparum ABS growth assay, SYBR Green, 72 h, HFGR-I parasites; format: cell-based, Plasmodium falciparum; conditions: HFGR-I, single replicates
How it was run: as §1

[4] = biological target: T1, PfcProRS (Plasmodium falciparum, UniProt Q8I5R7); format: binding; conditions: for dose-response signal (normalized), SI Fig 8: single replicates
T1 construct: made in house; host or cells: E. coli SoluBL-21
T1 sequence (Q8I5R7 249-746): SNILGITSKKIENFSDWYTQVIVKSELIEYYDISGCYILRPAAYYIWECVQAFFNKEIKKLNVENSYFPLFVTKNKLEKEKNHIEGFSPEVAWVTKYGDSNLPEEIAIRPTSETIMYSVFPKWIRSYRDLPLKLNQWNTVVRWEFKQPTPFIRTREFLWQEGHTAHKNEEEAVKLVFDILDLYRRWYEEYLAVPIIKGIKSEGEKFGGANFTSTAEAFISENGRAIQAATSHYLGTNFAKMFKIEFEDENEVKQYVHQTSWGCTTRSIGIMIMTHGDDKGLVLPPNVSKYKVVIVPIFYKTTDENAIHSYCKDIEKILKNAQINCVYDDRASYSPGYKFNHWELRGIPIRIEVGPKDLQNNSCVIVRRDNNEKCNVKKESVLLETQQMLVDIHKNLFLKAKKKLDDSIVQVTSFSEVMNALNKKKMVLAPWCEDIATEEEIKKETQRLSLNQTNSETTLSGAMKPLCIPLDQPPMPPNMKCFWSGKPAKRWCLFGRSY

[5] = biological target: HsProRS (Homo sapiens, UniProt P07814); experiment: TR-FRET ligand displacement assay with tracer MAT379 (CoraFluor-1-Halo and anti-His6 antibody formats); format: binding; design: made in house; host or cells: E. coli SoluBL-21; conditions: for TR-FRET dose-response, normalized signal (SI Fig 11): individual replicates
Chain of HsProRS (P07814 996-1512): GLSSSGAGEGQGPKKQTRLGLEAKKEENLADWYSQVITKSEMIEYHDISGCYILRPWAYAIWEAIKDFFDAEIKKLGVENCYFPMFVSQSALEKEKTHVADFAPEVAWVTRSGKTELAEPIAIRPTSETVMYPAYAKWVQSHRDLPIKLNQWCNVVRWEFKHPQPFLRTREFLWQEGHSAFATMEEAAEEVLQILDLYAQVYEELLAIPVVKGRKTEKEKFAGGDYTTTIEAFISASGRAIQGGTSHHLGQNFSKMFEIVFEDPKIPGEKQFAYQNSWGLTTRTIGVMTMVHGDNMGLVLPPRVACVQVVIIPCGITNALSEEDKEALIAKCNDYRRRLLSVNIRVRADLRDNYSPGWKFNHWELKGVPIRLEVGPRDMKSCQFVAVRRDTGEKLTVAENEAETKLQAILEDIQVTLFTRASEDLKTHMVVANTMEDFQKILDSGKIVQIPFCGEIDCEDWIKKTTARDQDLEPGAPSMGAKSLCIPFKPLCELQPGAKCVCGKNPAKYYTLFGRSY

CC1(C(=O)Nc2nccnc2C(=O)NC2Cc3ccccc3C2)CCCCC1 [compound 4]
ABS growth dose-response, normalized signal (Replicates 1-3) ([1]; Log[inhibitor] (M) -5.000): 0
parasite growth, dose-response point ([1]; Log[inhibitor] (M) -5.000): 0
ABS growth dose-response, normalized signal (Replicates 1-3) ([1]; Log[inhibitor] (M) -5.301): 0
parasite growth, dose-response point ([1]; Log[inhibitor] (M) -5.301): 0
ABS growth dose-response, normalized signal (Replicates 1-3) ([1]; Log[inhibitor] (M) -5.602): 0
parasite growth, dose-response point ([1]; Log[inhibitor] (M) -5.602): 0
ABS growth dose-response, normalized signal (Replicates 1-3) ([1]; Log[inhibitor] (M) -6.505): 8
parasite growth, dose-response point ([1]; Log[inhibitor] (M) -6.505): 8
EC50 ([1]; Plasmodium falciparum, DD2, SI Fig 16b, values on -log scale, read-out: ABS - Dd2-2D4 (converted)): 180 nM
parasite growth, dose-response point ([2]; Log[inhibitor] (M) -5): 1
parasite growth, dose-response point ([2]; Log[inhibitor] (M) -5.408): 1
parasite growth, dose-response point ([2]; Log[inhibitor] (M) -5.816): 0 (2×) and 1
parasite growth, dose-response point ([2]; Log[inhibitor] (M) -6.222): 16 and 18 and 17
parasite growth, dose-response point ([2]; Log[inhibitor] (M) -6.638): 99 (2×) and 106
parasite growth, dose-response point ([2]; Log[inhibitor] (M) -7.046): 103 (2×) and 109
parasite growth, dose-response point ([2]; Log[inhibitor] (M) -7.45): 100 and 97
parasite growth, dose-response point ([2]; Log[inhibitor] (M) -7.854): 100 (2×) and 97
parasite growth, dose-response point ([2]; Log[inhibitor] (M) -8.26): 101 and 95 and 97
parasite growth, dose-response point ([2]; Log[inhibitor] (M) -8.699): 99 and 98 (2×)
parasite growth, dose-response point ([2]; Log[inhibitor] (M) -9): 96 (2×) and 97
parasite growth, dose-response point ([2]; Log[inhibitor] (M) -9.488): 98 and 95 and 102
dose-response value, Replicates 1-3 (SI Fig 2e) ([2]; Log[inhibitor] (M) -5.000): 1
dose-response value, Replicates 1-3 (SI Fig 2e) ([2]; Log[inhibitor] (M) -5.408): 1
parasite growth, dose-response point ([3]; Log[inhibitor] (M) -5): 6 and 7 (2×)
parasite growth, dose-response point ([3]; Log[inhibitor] (M) -5.408): 7 (2×) and 6
parasite growth, dose-response point ([3]; Log[inhibitor] (M) -5.816): 6 (2×) and 7
parasite growth, dose-response point ([3]; Log[inhibitor] (M) -6.222): 10 (2×) and 9
parasite growth, dose-response point ([3]; Log[inhibitor] (M) -6.638): 75 and 76 and 81
parasite growth, dose-response point ([3]; Log[inhibitor] (M) -7.046): 99 and 105 and 110
parasite growth, dose-response point ([3]; Log[inhibitor] (M) -7.45): 87 and 99 and 100
parasite growth, dose-response point ([3]; Log[inhibitor] (M) -7.854): 99 and 98 and 103
parasite growth, dose-response point ([3]; Log[inhibitor] (M) -8.26): 100 and 101 and 104
parasite growth, dose-response point ([3]; Log[inhibitor] (M) -8.699): 98 and 99 and 104
parasite growth, dose-response point ([3]; Log[inhibitor] (M) -9): 101 and 97 and 100
parasite growth, dose-response point ([3]; Log[inhibitor] (M) -9.488): 89 and 96 and 93
dose-response signal (normalized), SI Fig 8 ([4]; Log[inhibitor] (M) -5.000): 4.05E-02 and -1.19E-01 and -1.91E-02
dose-response signal (normalized), SI Fig 8 ([4]; Log[inhibitor] (M) -5.301): -7.53E-02 and -2.32E-02 and 3.73E-02
dose-response signal (normalized), SI Fig 8 ([4]; Log[inhibitor] (M) -5.601): -7.78E-02 and -2.66E-03 and -2.25E-02
dose-response signal (normalized), SI Fig 8 ([4]; Log[inhibitor] (M) -5.904): 1.67E-02 and 2.48E-02 and 1.76E-02
dose-response signal (normalized), SI Fig 8 ([4]; Log[inhibitor] (M) -6.208): 8.20E-02 and 4.30E-02 and 6.02E-02
dose-response signal (normalized), SI Fig 8 ([4]; Log[inhibitor] (M) -6.509): 7.49E-03 and -2.38E-02 and -1.11E-02
dose-response signal (normalized), SI Fig 8 ([4]; Log[inhibitor] (M) -6.796): 4.86E-02 and 3.80E-02 and -1.10E-02
dose-response signal (normalized), SI Fig 8 ([4]; Log[inhibitor] (M) -7.108): 4.17E-02 and 7.57E-02 and 3.79E-02
dose-response signal (normalized), SI Fig 8 ([4]; Log[inhibitor] (M) -7.409): 2.11E-01 and 1.42E-01 and 1.90E-01
dose-response signal (normalized), SI Fig 8 ([4]; Log[inhibitor] (M) -7.710): 4.47E-01 and 2.93E-01 and 4.00E-01
dose-response signal (normalized), SI Fig 8 ([4]; Log[inhibitor] (M) -8.000): 7.09E-01 and 7.29E-01 and 6.69E-01
dose-response signal (normalized), SI Fig 8 ([4]; Log[inhibitor] (M) -8.301): 8.70E-01 and 9.23E-01 and 9.80E-01
dose-response signal (normalized), SI Fig 8 ([4]; Log[inhibitor] (M) -8.602): 1.09E+00 and 9.73E-01 and 1.05E+00
dose-response signal (normalized), SI Fig 8 ([4]; Log[inhibitor] (M) -9.000): 9.29E-01 and 9.06E-01 and 9.66E-01
dose-response signal (normalized), SI Fig 8 ([4]; Log[inhibitor] (M) -9.301): 8.49E-01 and 1.04E+00 and 9.72E-01
PfcProRS -- best Kd ([4]; SI Fig 16a, values on -log scale): 8.466
Kd ([5]; HsProRS (KD [nM]) −, absence of substrates, 250 nM MAT379): 221 nM
Kd ([5]; HsProRS - best Kd, SI Fig 16a, values on -log scale): 2.55 nM
normalized TR-FRET ligand displacement signal, dose-response replicates (SI Fig 6) ([5]; Log[inhibitor] (M) -5.000): 4.53E-02 and 6.57E-02 and 9.85E-02
TR-FRET dose-response, normalized signal (SI Fig 11) ([5]; Log[inhibitor] (M) -5.000): 6.99E-03 and -1.87E-02 and 8.97E-03
normalized TR-FRET ligand displacement signal, dose-response replicates (SI Fig 6) ([5]; Log[inhibitor] (M) -5.301): 8.38E-02 and 1.09E-01 and 1.45E-01
TR-FRET dose-response, normalized signal (SI Fig 11) ([5]; Log[inhibitor] (M) -5.301): 5.00E-02 and 2.79E-02 and 4.24E-02
normalized TR-FRET ligand displacement signal, dose-response replicates (SI Fig 6) ([5]; Log[inhibitor] (M) -5.601): 2.80E-01 and 1.33E-01 and 2.62E-01
TR-FRET dose-response, normalized signal (SI Fig 11) ([5]; Log[inhibitor] (M) -5.601): 1.01E-01 and 8.93E-02 and 1.03E-01
normalized TR-FRET ligand displacement signal, dose-response replicates (SI Fig 6) ([5]; Log[inhibitor] (M) -5.904): 4.58E-01 and 3.89E-01 and 4.73E-01
TR-FRET dose-response, normalized signal (SI Fig 11) ([5]; Log[inhibitor] (M) -5.904): 1.64E-01 and 2.16E-01 and 1.95E-01
normalized TR-FRET ligand displacement signal, dose-response replicates (SI Fig 6) ([5]; Log[inhibitor] (M) -6.208): 6.24E-01 and 6.52E-01 and 5.78E-01
TR-FRET dose-response, normalized signal (SI Fig 11) ([5]; Log[inhibitor] (M) -6.208): 2.83E-01 and 3.32E-01 and 2.85E-01
normalized TR-FRET ligand displacement signal, dose-response replicates (SI Fig 6) ([5]; Log[inhibitor] (M) -6.509): 8.00E-01 and 8.38E-01 and 8.01E-01
TR-FRET dose-response, normalized signal (SI Fig 11) ([5]; Log[inhibitor] (M) -6.509): 4.57E-01 and 4.64E-01 and 4.80E-01
normalized TR-FRET ligand displacement signal, dose-response replicates (SI Fig 6) ([5]; Log[inhibitor] (M) -6.796): 9.06E-01 and 8.75E-01 and 9.05E-01
TR-FRET dose-response, normalized signal (SI Fig 11) ([5]; Log[inhibitor] (M) -6.796): 6.22E-01 and 6.48E-01 and 6.15E-01
normalized TR-FRET ligand displacement signal, dose-response replicates (SI Fig 6) ([5]; Log[inhibitor] (M) -7.108): 9.19E-01 and 1.02E+00 and 8.47E-01
TR-FRET dose-response, normalized signal (SI Fig 11) ([5]; Log[inhibitor] (M) -7.108): 7.25E-01 and 7.35E-01 and 7.08E-01
normalized TR-FRET ligand displacement signal, dose-response replicates (SI Fig 6) ([5]; Log[inhibitor] (M) -7.409): 8.93E-01 and 1.05E+00 and 9.99E-01
TR-FRET dose-response, normalized signal (SI Fig 11) ([5]; Log[inhibitor] (M) -7.409): 8.57E-01 and 8.69E-01 and 8.79E-01
normalized TR-FRET ligand displacement signal, dose-response replicates (SI Fig 6) ([5]; Log[inhibitor] (M) -7.710): 9.69E-01 (2×) and 9.96E-01
TR-FRET dose-response, normalized signal (SI Fig 11) ([5]; Log[inhibitor] (M) -7.710): 9.21E-01 and 9.18E-01 and 9.07E-01
normalized TR-FRET ligand displacement signal, dose-response replicates (SI Fig 6) ([5]; Log[inhibitor] (M) -8.000): 1.02E+00 and 9.51E-01 and 1.08E+00
TR-FRET dose-response, normalized signal (SI Fig 11) ([5]; Log[inhibitor] (M) -8.000): 9.42E-01 and 9.60E-01 and 9.15E-01
normalized TR-FRET ligand displacement signal, dose-response replicates (SI Fig 6) ([5]; Log[inhibitor] (M) -8.301): 8.99E-01 and 1.00E+00 and 9.75E-01
TR-FRET dose-response, normalized signal (SI Fig 11) ([5]; Log[inhibitor] (M) -8.301): 9.32E-01 and 9.20E-01 and 9.46E-01
normalized TR-FRET ligand displacement signal, dose-response replicates (SI Fig 6) ([5]; Log[inhibitor] (M) -8.602): 9.54E-01 and 1.01E+00 and 9.27E-01
TR-FRET dose-response, normalized signal (SI Fig 11) ([5]; Log[inhibitor] (M) -8.602): 9.70E-01 and 9.45E-01 and 9.16E-01
normalized TR-FRET ligand displacement signal, dose-response replicates (SI Fig 6) ([5]; Log[inhibitor] (M) -9.000): 9.66E-01 and 9.16E-01 and 8.85E-01
TR-FRET dose-response, normalized signal (SI Fig 11) ([5]; Log[inhibitor] (M) -9.000): 9.54E-01 and 9.83E-01 and 9.88E-01
normalized TR-FRET ligand displacement signal, dose-response replicates (SI Fig 6) ([5]; Log[inhibitor] (M) -9.301): 1.02E+00 (2×) and 1.01E+00
TR-FRET dose-response, normalized signal (SI Fig 11) ([5]; Log[inhibitor] (M) -9.301): 9.40E-01 and 9.47E-01 and 9.44E-01
